Legend:
Integrin alpha-4/beta-1 [1] = biological target: T1, Integrin alpha-4/beta-1 (Homo sapiens, UniProt P05556+P13612); experiment: Inhibitory activity against alpha-4 beta-1 receptor (VLA-4) in human RPMI-8866 cells using [125I]-VCAM-Ig ligand; assay type: cell-based
in vivo = conditions: Sprague-Dawley, rat, plasma, iv, 1 mg/kg
[2] = Bioavailability in rat (dose 1 mg/kg i.v. and 2 mg/kg p.o.); conditions: in vivo, po, F
Rattus norvegicus = organism: Rattus norvegicus; conditions: in vivo, iv, 1 mg/kg
Integrin alpha-4/beta-1 [3] = biological target: T1, Integrin alpha-4/beta-1; experiment: Inhibition of [125I]VCAM-Ig binding to alpha4-beta1 (VLA-4) of human RPMI-8866 cells; assay type: cell-based

T1 sequence (P05556 whole entry): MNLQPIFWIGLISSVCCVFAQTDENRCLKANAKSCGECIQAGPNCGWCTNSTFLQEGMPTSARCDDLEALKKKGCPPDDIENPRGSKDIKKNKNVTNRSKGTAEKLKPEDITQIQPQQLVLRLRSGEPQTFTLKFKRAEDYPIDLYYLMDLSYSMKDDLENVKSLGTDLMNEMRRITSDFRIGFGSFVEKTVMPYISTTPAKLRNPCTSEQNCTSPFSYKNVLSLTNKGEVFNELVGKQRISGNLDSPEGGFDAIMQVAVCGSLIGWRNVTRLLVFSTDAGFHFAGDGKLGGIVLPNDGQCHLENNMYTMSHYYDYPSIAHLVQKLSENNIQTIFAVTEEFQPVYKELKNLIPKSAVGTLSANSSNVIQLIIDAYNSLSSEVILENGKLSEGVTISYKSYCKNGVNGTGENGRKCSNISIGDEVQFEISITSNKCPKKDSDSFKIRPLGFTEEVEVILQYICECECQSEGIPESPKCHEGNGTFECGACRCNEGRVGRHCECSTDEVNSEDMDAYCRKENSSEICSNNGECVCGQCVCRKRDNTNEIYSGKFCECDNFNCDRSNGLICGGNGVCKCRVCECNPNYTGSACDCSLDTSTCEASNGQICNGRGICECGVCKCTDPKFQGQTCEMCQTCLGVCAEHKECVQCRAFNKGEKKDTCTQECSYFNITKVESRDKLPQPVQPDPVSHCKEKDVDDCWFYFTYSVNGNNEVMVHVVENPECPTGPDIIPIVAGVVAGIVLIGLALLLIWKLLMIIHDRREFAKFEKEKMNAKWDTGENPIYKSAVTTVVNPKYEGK
T1 sequence (P13612 whole entry): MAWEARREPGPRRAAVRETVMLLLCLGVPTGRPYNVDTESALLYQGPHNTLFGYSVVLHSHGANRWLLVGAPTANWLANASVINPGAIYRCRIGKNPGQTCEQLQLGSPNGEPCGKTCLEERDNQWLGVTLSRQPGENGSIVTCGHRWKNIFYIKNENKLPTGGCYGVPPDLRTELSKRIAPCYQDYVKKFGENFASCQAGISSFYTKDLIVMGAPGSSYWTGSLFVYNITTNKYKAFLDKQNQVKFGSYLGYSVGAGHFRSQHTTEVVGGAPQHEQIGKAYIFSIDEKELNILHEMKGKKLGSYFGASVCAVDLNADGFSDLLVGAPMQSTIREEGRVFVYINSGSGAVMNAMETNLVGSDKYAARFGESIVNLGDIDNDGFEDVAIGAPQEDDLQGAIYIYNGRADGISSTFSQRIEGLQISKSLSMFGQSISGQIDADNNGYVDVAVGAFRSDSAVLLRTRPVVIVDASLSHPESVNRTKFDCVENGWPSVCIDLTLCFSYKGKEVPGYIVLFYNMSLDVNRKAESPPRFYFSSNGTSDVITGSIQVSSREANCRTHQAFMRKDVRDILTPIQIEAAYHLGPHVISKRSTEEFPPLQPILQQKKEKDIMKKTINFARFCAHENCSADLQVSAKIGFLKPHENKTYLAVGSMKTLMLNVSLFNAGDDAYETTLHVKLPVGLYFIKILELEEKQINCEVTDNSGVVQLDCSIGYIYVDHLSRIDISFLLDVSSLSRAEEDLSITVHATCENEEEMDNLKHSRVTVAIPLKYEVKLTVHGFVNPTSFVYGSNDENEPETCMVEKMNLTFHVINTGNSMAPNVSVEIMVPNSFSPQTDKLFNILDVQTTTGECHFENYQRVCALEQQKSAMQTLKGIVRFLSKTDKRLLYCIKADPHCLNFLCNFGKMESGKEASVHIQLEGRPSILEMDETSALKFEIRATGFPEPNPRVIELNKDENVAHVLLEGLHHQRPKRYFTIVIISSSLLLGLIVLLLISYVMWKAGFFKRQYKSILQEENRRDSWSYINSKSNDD

Row | Compound | IC50 (Integrin alpha-4/beta-1 [1]) [nM] | clearance (in vivo) [mL/min/kg] | further results
1 | O=C(O)C[C@@H](NC(=O)[C@@H]1CCN1S(=O)(=O)c1cc(Cl)cc(Cl)c1)c1ccc(OC(F)F)cc1 | 1.3 |  | 
2 | COc1ccc([C@@H](CC(=O)O)NC(=O)[C@]2(C)CCN2S(=O)(=O)c2cc(Cl)cc(Cl)c2)cc1 | 1.5 | 7 | 
3 | CC(C)[C@@H](CC(=O)O)NC(=O)[C@@H]1CCCN1S(=O)(=O)c1cc(Cl)cc(Cl)c1 | 8.9 |  | 
4 | CC(C)[C@H](CC(=O)O)NC(=O)[C@@H]1CCCN1S(=O)(=O)c1cc(Cl)cc(Cl)c1 | 362 |  | 
5 | O=C(O)C[C@@H](NC(=O)[C@@H]1CCN1S(=O)(=O)c1cc(Cl)cc(Cl)c1)c1ccc(Oc2ccccc2)cc1 | 3.1 |  | 
6 | O=C(O)C[C@@H](NC(=O)[C@@H]1CCN1S(=O)(=O)c1cc(Cl)cc(Cl)c1)c1ccc(OCC(F)(F)F)cc1 | 1.4 | 43 | bioavailability [2]: 38%
7 | C/C=C/[C@@H](CC(=O)O)NC(=O)[C@@H]1CCCN1S(=O)(=O)c1cc(Cl)cc(Cl)c1 | 13 |  | 
8 | O=C(O)CCNC(=O)[C@@H]1CCCN1S(=O)(=O)c1cc(Cl)cc(Cl)c1 | 1510 |  | 
9 | O=C(O)C[C@H](NC(=O)[C@@H]1CCCN1S(=O)(=O)c1cc(Cl)cc(Cl)c1)c1ccccc1 | 544 |  | 
10 | O=C(O)C[C@@H](NC(=O)[C@@H]1CCCN1S(=O)(=O)c1cc(Cl)cc(Cl)c1)c1ccc(OC2CC2)cc1 | 0.85 | 26 | 
11 | O=C(O)C[C@@H](NC(=O)[C@@H]1CCN1S(=O)(=O)c1cc(Cl)cc(Cl)c1)c1ccc(Cl)c(F)c1 | 11 |  | 
12 | COc1ccc([C@@H](CC(=O)O)NC(=O)[C@@H]2CCN2S(=O)(=O)c2cc(Cl)cc(Cl)c2)cn1 | 3 | 55 | 
13 | COc1ccc([C@](C)(CC(=O)O)NC(=O)[C@@H]2CCN2S(=O)(=O)c2cc(Cl)cc(Cl)c2)cc1 | 26 | 46 | bioavailability [2]: 19%
14 | O=C(O)C[C@H](Cc1ccccc1)NC(=O)[C@@H]1CCCN1S(=O)(=O)c1cc(Cl)cc(Cl)c1 | 22 |  | 
15 | O=C(O)[C@H](Cc1ccccc1)NC(=O)[C@@H]1CCCN1S(=O)(=O)c1cc(Cl)cc(Cl)c1 | 1.4 |  | 
16 | O=C(O)C[C@@H](NC(=O)[C@@H]1CCN1S(=O)(=O)c1cc(Cl)cc(Cl)c1)c1ccc(Br)cc1 | 2.1 |  | 
17 | Cc1ccccc1NC(=O)Nc1ccc(CN[C@@H](CC(C)C)C(=O)N[C@@H](CC(=O)O)c2ccc3c(c2)OCO3)cc1 | 3 |  | 
18 | O=C(O)C[C@@H](NC(=O)[C@@H]1CCCN1S(=O)(=O)c1cc(Cl)cc(Cl)c1)c1ccc(OC(F)(F)F)cc1 | 2.6 | 22 | 
19 | O=C(O)C[C@@H](NC(=O)[C@@H]1CCN1S(=O)(=O)c1cc(Cl)cc(Cl)c1)c1ccc(F)cc1 | 3.2 |  | 
20 | O=C(O)C[C@@H](NC(=O)[C@@H]1CCN1S(=O)(=O)c1cc(Cl)cc(Cl)c1)c1ccccc1 |  | 27 | IC50 (Integrin alpha-4/beta-1 [3]): 2.4 nM

The next lines start with results.

Row | IC50 (Integrin alpha-4/beta-1 [1]) [nM] | clearance (in vivo) [mL/min/kg] | Compound | further results
21 | 0.55 | 92 | CS(=O)(=O)c1ccc([C@@H](CC(=O)O)NC(=O)[C@@H]2CCCN2S(=O)(=O)c2cc(Cl)cc(Cl)c2)cc1 | 
22 | 0.39 |  | COc1ccc([C@@H](CC(=O)O)NC(=O)[C@@H]2CCN2S(=O)(=O)c2cc(Cl)cc(Cl)c2)cc1 (stereo in doubt; 6g) | clearance (Rattus norvegicus): 39 mL/min/kg
23 | 0.5 | 165 | O=C(O)C[C@@H](NC(=O)[C@@H]1CCN1S(=O)(=O)c1cc(Cl)cc(Cl)c1)c1ccc(OC2CCCC2)cc1 | 
24 | 0.72 |  | O=C(O)C[C@@H](NC(=O)[C@@H]1CCN1S(=O)(=O)c1cc(Cl)cc(Cl)c1)c1ccc(OCF)cc1 | 
25 | 0.74 | 22 | O=C(O)C[C@@H](NC(=O)[C@@H]1CCCN1S(=O)(=O)c1cc(Cl)cc(Cl)c1)c1ccc(O)cc1 | 
26 | 0.53 |  | CC(C)(C)Oc1ccc([C@@H](CC(=O)O)NC(=O)[C@@H]2CCCN2S(=O)(=O)c2cc(Cl)cc(Cl)c2)cc1 | 
27 | 0.49 |  | COc1ccc([C@@H](CC(=O)O)NC(=O)[C@@H]2CCN2S(=O)(=O)c2cc(Cl)cc(Cl)c2)cc1 (stereo in doubt; 7g) | clearance (Rattus norvegicus): 17 mL/min/kg
28 | 0.27 | 40 | CCOc1ccc([C@@H](CC(=O)O)NC(=O)[C@@H]2CCCN2S(=O)(=O)c2cc(Cl)cc(Cl)c2)cc1 | 
29 | 0.31 | 70 | O=C(O)C[C@@H](NC(=O)[C@@H]1CCN1S(=O)(=O)c1cc(Cl)cc(Cl)c1)c1ccc(OC2CC2)cc1 | 
